Measurements taken from patent US12178210B2, “Insect attractant and killing system” (priority 2020, dated 2024).
Where two headings read alike, the source gives them in different places.

Experiments:
[1] = field, Valencia
Description: Every two weeks samples of the attractant were weighed to determine the mass. From the mass, the mass that had been released, the mass remaining, and the amount of ammonia released was determined.

[2] = for Attractant Release Rate (5-day average per time point): Ambient Temperature
Description: All prototype lure devices (i.e., the attractant receptacle and permeable membrane with enclosed volatile insect attractant) were constructed using polypropylene/calcium carbonate film (UV8) for the permeable membrane and Scotchpak™ (3M) polyester laminate film for the impermeable barrier material. Each lure device measured approximately 11.5 cm×5.5 cm with a 1.6 mm ( 1/16 in) diameter spherical punch in the impermeable layer exposing the membrane and an ˜8 mm ( 5/16 in) diameter heat seal around the circumference of the punch (referred to as a ring seal). […] Prior to being deployed the lures were weighed on an analytical balance (Sartorius, Universal; resolution of 0.01 g). Prototype lures were attached to a cord that ran the length of ventilated laboratory fume hood, with 5-8 cm (2-3 in) separating each lure in an open, ventilated room at the indicated temperature (18-20° C. or 39-41° C.). Every 2-3 days the lures were removed from the cord and weighed on the same scale. Lure weight was recorded and the weight loss (g/day) was calculated. In addition to prototype lures, two controls were included in the study consisting of a current Suterra lure product (WHF lure) and a competitor product (Comp. Prod. 1).

N.NC(=O)O [Ammonium Carbamate, ammonium carbamate]
Avg. Mass Loss ([1]; week 0, ave. temp. 25.10 ° C): 0.00 g | Avg. Mass Remaining ([1]; week 0, ave. temp. 25.10 ° C): 16.90 g | Avg. Release Rate ([1]; week 0, ave. temp. 25.10 ° C): 0.000 g/day | Avg. Mass Loss ([1]; week 2, ave. temp. 26.30 ° C): 0.75 g | Avg. Mass Remaining ([1]; week 2, ave. temp. 26.30 ° C): 16.15 g | Avg. Release Rate ([1]; week 2, ave. temp. 26.30 ° C): 0.054 g/day | Avg. Mass Loss ([1]; week 4, ave. temp. 26.90 ° C): 1.75 g | Avg. Mass Remaining ([1]; week 4, ave. temp. 26.90 ° C): 15.15 g | Avg. Release Rate ([1]; week 4, ave. temp. 26.90 ° C): 0.071 g/day | Avg. Mass Loss ([1]; week 6, ave. temp. 27.10 ° C): 2.65 g | Avg. Mass Remaining ([1]; week 6, ave. temp. 27.10 ° C): 14.25 g | Avg. Release Rate ([1]; week 6, ave. temp. 27.10 ° C): 0.064 g/day | Avg. Mass Loss ([1]; week 8, ave. temp. 24.40 ° C): 3.48 g | Avg. Mass Remaining ([1]; week 8, ave. temp. 24.40 ° C): 13.42 g | Avg. Release Rate ([1]; week 8, ave. temp. 24.40 ° C): 0.059 g/day | Avg. Mass Loss ([1]; week 10, ave. temp. 22.60 ° C): 4.17 g | Avg. Mass Remaining ([1]; week 10, ave. temp. 22.60 ° C): 12.72 g | Avg. Release Rate ([1]; week 10, ave. temp. 22.60 ° C): 0.050 g/day | Avg. Mass Loss ([1]; week 12, ave. temp. 21.50 ° C): 4.82 g | Avg. Mass Remaining ([1]; week 12, ave. temp. 21.50 ° C): 12.08 g | Avg. Release Rate ([1]; week 12, ave. temp. 21.50 ° C): 0.046 g/day | Avg. Mass Loss ([1]; week 14, ave. temp. 19.90 ° C): 5.38 g | Avg. Mass Remaining ([1]; week 14, ave. temp. 19.90 ° C): 11.52 g | Avg. Release Rate ([1]; week 14, ave. temp. 19.90 ° C): 0.040 g/day | Avg. Mass Loss ([1]; week 16, ave. temp. 17.70 ° C): 5.72 g | Avg. Mass Remaining ([1]; week 16, ave. temp. 17.70 ° C): 11.18 g | Avg. Release Rate ([1]; week 16, ave. temp. 17.70 ° C): 0.024 g/day | Avg. Mass Loss ([1]; week 18, ave. temp. 15.30 ° C): 6.02 g | Avg. Mass Remaining ([1]; week 18, ave. temp. 15.30 ° C): 10.88 g | Avg. Release Rate ([1]; week 18, ave. temp. 15.30 ° C): 0.021 g/day | Avg. Mass Loss ([1]; week 20, ave. temp. 14.40 ° C): 6.26 g | Avg. Mass Remaining ([1]; week 20, ave. temp. 14.40 ° C): 10.64 g | Avg. Release Rate ([1]; week 20, ave. temp. 14.40 ° C): 0.017 g/day | Avg. Mass Loss ([1]; week 24, ave. temp. 11.70 ° C): 6.36 g | Avg. Mass Remaining ([1]; week 24, ave. temp. 11.70 ° C): 10.54 g | Avg. Release Rate ([1]; week 24, ave. temp. 11.70 ° C): 0.004 g/day | Avg. Mass Loss ([1]; week 28, ave. temp. […] C): 6.71 g | Avg. Mass Remaining ([1]; week 28, ave. temp. […] C): 10.19 g | Avg. Release Rate ([1]; week 28, ave. temp. […] C): 0.013 g/day | Avg. Mass Loss ([1]; week 31, ave. temp. […] C): 7.22 g | Avg. Mass Remaining ([1]; week 31, ave. temp. […] C): 9.67 g | Avg. Release Rate ([1]; week 31, ave. temp. […] C): 0.024 g/day | Avg. Mass Loss ([1]; week 35, ave. temp. 12.60 ° C): 7.63 g | Avg. Mass Remaining ([1]; week 35, ave. temp. 12.60 ° C): 9.26 g | Avg. Release Rate ([1]; week 35, ave. temp. 12.60 ° C): 0.015 g/day | Avg. Mass Loss ([1]; week 38, ave. temp. 13.50 ° C): 8.07 g | Avg. Mass Remaining ([1]; week 38, ave. temp. 13.50 ° C): 8.83 g | Avg. Release Rate ([1]; week 38, ave. temp. 13.50 ° C): 0.021 g/day | Avg. Mass Loss ([1]; week 39, ave. temp. 13.30 ° C): 8.24 g | Avg. Mass Remaining ([1]; week 39, ave. temp. 13.30 ° C): 8.66 g | Avg. Release Rate ([1]; week 39, ave. temp. 13.30 ° C): 0.024 g/day | Avg. Mass Loss ([1]; week 41, ave. temp. 15.80 ° C): 8.55 g | Avg. Mass Remaining ([1]; week 41, ave. temp. 15.80 ° C): 8.35 g | Avg. Release Rate ([1]; week 41, ave. temp. 15.80 ° C): 0.022 g/day | Avg. Mass Loss ([1]; week 43, ave. temp. 16.50 ° C): 8.79 g | Avg. Mass Remaining ([1]; week 43, ave. temp. 16.50 ° C): 8.11 g | Avg. Release Rate ([1]; week 43, ave. temp. 16.50 ° C): 0.017 g/day | Avg. Mass Loss ([1]; week 46, ave. temp. 18.10 ° C): 9.45 g | Avg. Mass Remaining ([1]; week 46, ave. temp. 18.10 ° C): 7.44 g | Avg. Release Rate ([1]; week 46, ave. temp. 18.10 ° C): 0.032 g/day | Avg. Mass Loss ([1]; week 47, ave. temp. 20.40 ° C): 9.75 g | Avg. Mass Remaining ([1]; week 47, ave. temp. 20.40 ° C): 7.14 g | Avg. Release Rate ([1]; week 47, ave. temp. 20.40 ° C): 0.043 g/day | Release Rate ([2]; 40° C., 16 hours, UV8 membrane, 1.6 mm orifice): 0.49 g/day | Release Rate ([2]; 40° C., 16 hours, second, unexplained block of rows): 0.02 g/day | Release Rate ([2]; 40° C., 24 hours, UV8 membrane, 1.6 mm orifice): 0.49 g/day | Release Rate ([2]; 40° C., 24 hours, second, unexplained block of rows): 0.01 g/day | Release Rate ([2]; 40° C., 51 hours, UV8 membrane, 1.6 mm orifice): 0.46 g/day | Release Rate ([2]; 40° C., 51 hours, second, unexplained block of rows): 0.01 g/day | Release Rate ([2]; 40° C., 88 hours, UV8 membrane, 1.6 mm orifice): 0.45 g/day | Release Rate ([2]; 40° C., 88 hours, second, unexplained block of rows): 0.04 g/day | Release Rate ([2]; 40° C., 96 hours, UV8 membrane, 1.6 mm orifice): 0.46 g/day | Release Rate ([2]; 40° C., 96 hours, second, unexplained block of rows): 0.06 g/day | Release Rate ([2]; 40° C., 112 hours, UV8 membrane, 1.6 mm orifice): 0.46 g/day | Release Rate ([2]; 40° C., 112 hours, second, unexplained block of rows): 0.08 g/day | Release Rate ([2]; 40° C., 120 hours, UV8 membrane, 1.6 mm orifice): 0.46 g/day | Release Rate ([2]; 40° C., 120 hours, second, unexplained block of rows): 0.09 g/day | Release Rate ([2]; 40° C., 144 hours, UV8 membrane, 1.6 mm orifice): 0.46 g/day | Release Rate ([2]; 40° C., 144 hours, second, unexplained block of rows): 0.11 g/day | Release Rate ([2]; 40° C., 168 hours, UV8 membrane, 1.6 mm orifice): 0.46 g/day | Release Rate ([2]; 40° C., 168 hours, second, unexplained block of rows): 0.13 g/day | Attractant Release Rate (5-day average per time point) ([2]; day 5, 15 g, UV8 membrane, 1.6 mm orifice): 89.2 mg/day | Attractant Release Rate (5-day average per time point) ([2]; day 10, 15 g, UV8 membrane, 1.6 mm orifice): 93.6 mg/day | Attractant Release Rate (5-day average per time point) ([2]; day 15, 15 g, UV8 membrane, 1.6 mm orifice): 97.0 mg/day | Attractant Release Rate (5-day average per time point) ([2]; day 20, 15 g, UV8 membrane, 1.6 mm orifice): 101.0 mg/day | Attractant Release Rate (5-day average per time point) ([2]; day 25, 15 g, UV8 membrane, 1.6 mm orifice): 100.0 mg/day | Attractant Release Rate (5-day average per time point) ([2]; day 30, 15 g, UV8 membrane, 1.6 mm orifice): 105.3 mg/day | Attractant Release Rate (5-day average per time point) ([2]; day 40, 15 g, UV8 membrane, 1.6 mm orifice): 99.6 mg/day | Attractant Release Rate (5-day average per time point) ([2]; day 49, 15 g, UV8 membrane, 1.6 mm orifice): 113.5 mg/day | Attractant Release Rate (5-day average per time point) ([2]; day 55, 15 g, UV8 membrane, 1.6 mm orifice): 114.3 mg/day | Release Rate ([2]; Ambient, 16 hours, UV8 membrane, 1.6 mm orifice): 0.09 g/day | Release Rate ([2]; Ambient, 16 hours, second, unexplained block of rows): 0.00 g/day | Release Rate ([2]; Ambient, 24 hours, UV8 membrane, 1.6 mm orifice): 0.10 g/day | Release Rate ([2]; Ambient, 24 hours, second, unexplained block of rows): 0.01 g/day | Release Rate ([2]; Ambient, 51 hours, UV8 membrane, 1.6 mm orifice): 0.10 g/day | Release Rate ([2]; Ambient, 51 hours, second, unexplained block of rows): 0.00 g/day | Release Rate ([2]; Ambient, 88 hours, UV8 membrane, 1.6 mm orifice): 0.10 g/day | Release Rate ([2]; Ambient, 88 hours, second, unexplained block of rows): 0.02 g/day | Release Rate ([2]; Ambient, 96 hours, UV8 membrane, 1.6 mm orifice): 0.10 g/day | Release Rate ([2]; Ambient, 96 hours, second, unexplained block of rows): 0.02 g/day | Release Rate ([2]; Ambient, 112 hours, UV8 membrane, 1.6 mm orifice): 0.10 g/day | Release Rate ([2]; Ambient, 112 hours, second, unexplained block of rows): 0.02 g/day | Release Rate ([2]; Ambient, 120 hours, UV8 membrane, 1.6 mm orifice): 0.10 g/day | Release Rate ([2]; Ambient, 120 hours, second, unexplained block of rows): 0.00 g/day | Release Rate ([2]; Ambient, 144 hours, UV8 membrane, 1.6 mm orifice): 0.10 g/day | Release Rate ([2]; Ambient, 144 hours, second, unexplained block of rows): 0.00 g/day | Release Rate ([2]; Ambient, 168 hours, UV8 membrane, 1.6 mm orifice): 0.10 g/day | Release Rate ([2]; Ambient, 168 hours, second, unexplained block of rows): 0.00 g/day | Attractant Release Rate (5-day average per time point) ([2]; day 5, CM): 393.2 mg/day | Attractant Release Rate (5-day average per time point) ([2]; day 10, CM): 387.2 mg/day | Attractant Release Rate (5-day average per time point) ([2]; day 15, CM): 362.0 mg/day | Attractant Release Rate (5-day average per time point) ([2]; day 20, CM): 356.0 mg/day | Attractant Release Rate (5-day average per time point) ([2]; day 25, CM): 331.6 mg/day | Attractant Release Rate (5-day average per time point) ([2]; day 30, CM): 311.7 mg/day | Attractant Release Rate (5-day average per time point) ([2]; day 35, CM): 306.5 mg/day | Attractant Release Rate (5-day average per time point) ([2]; day 40, CM): 266.0 mg/day | Attractant Release Rate (5-day average per time point) ([2]; day 45, CM): 191.6 mg/day | Attractant Release Rate (5-day average per time point) ([2]; day 49, CM): 94.0 mg/day | Attractant Release Rate (5-day average per time point) ([2]; day 55, CM): 10.3 mg/day
